Experimental data published in patent US6579881B2 (Eisai Co., Ltd., priority 1997, dated 2003).
Counter-ions that a name gives are not always drawn. Like-named read-outs stand apart in the source and are kept apart here.

Tests used:
serotonin 2 receptor = serotonin 2 receptor (Rattus norvegicus, UniProt P14842); test: Binding test on [3H] ketanserin (serotonin 2 receptor); settings: [3H] ketanserin 0.3 nM, receptor fraction of rat cerebral cortex; read-out: 5HT2
serotonin 1A receptor = molecular target: T1, serotonin 1A receptor (Rattus norvegicus, UniProt P19327); test: Binding test on [3H] 8-hydroxy-dipropylaminotetralin (serotonin 1A receptor); settings: [3H] 8-OH-DPAT 0.5 nM, receptor fraction of rat hippocampus; read-out: 5HT1a
T1 construct: To the receptor fraction of the hippocampus were added a test compound and 0.5 nM of [^3H]; 8-hydroxy-dipropylaminotetralin; from tissue; host or cells: SD rat hippocampus, membrane (receptor) fraction
T1 sequence (P19327 1-422): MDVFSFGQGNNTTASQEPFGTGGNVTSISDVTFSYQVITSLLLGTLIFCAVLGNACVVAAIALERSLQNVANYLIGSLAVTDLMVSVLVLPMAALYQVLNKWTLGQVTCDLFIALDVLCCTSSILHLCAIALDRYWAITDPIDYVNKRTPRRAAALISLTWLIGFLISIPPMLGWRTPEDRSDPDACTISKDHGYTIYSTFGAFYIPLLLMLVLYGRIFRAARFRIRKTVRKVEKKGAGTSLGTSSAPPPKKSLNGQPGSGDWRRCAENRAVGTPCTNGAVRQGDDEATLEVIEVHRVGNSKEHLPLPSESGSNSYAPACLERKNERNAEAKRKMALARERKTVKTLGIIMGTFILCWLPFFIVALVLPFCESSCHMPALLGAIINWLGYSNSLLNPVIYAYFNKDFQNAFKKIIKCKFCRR

[1] = system: Straub's tail reaction (hyper-muscle tone in the tail); test: Morphine induced Straub's tail phenomenon in mice; assay type: in vivo; settings: Mus musculus, male ddY mice, 15 min before morphine hydrochloride 12.5 mg/kg s.c., statistically significant (p<0.05)
α1 adrenalin receptor = test: Binding test on [3H] prazosin (α1 adrenalin receptor); design: species or system rat; settings: [3H] prazosin about 0.2 nM, receptor fraction of rat cerebral cortex
[2] = ip, i.p., read-out: minimal effective dose i.p.
[3] = po, p.o., read-out: minimal effective dose p.o.

Sequence of serotonin 2 receptor (P14842 whole entry): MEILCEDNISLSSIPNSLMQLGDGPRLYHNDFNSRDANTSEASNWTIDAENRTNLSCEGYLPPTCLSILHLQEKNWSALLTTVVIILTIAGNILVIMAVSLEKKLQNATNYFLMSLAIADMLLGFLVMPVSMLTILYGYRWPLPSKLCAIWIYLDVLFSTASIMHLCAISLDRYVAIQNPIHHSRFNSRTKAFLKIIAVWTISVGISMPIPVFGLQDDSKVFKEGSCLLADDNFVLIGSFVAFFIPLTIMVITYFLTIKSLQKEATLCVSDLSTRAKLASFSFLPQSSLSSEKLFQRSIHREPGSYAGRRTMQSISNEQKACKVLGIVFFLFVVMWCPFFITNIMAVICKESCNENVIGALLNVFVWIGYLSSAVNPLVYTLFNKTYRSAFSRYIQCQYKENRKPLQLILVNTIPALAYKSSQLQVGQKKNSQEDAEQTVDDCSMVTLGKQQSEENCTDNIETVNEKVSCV

SMILES	Ki (serotonin 2 receptor) [nM]	Ki (serotonin 1A receptor) [nM]	Ki (α1 adrenalin receptor) [nM]	melting point	minimal effective dose [1, 2] [mg/kg]	minimal effective dose [1, 3] [mg/kg]
NC(=O)c1ccc2c(c1)N(C1CCN(CCc3ccc(F)cc3)CC1)CC2 [Example 125, 1-[1-(4-fluorophenethyl)piperidin-4-yl]-6-carbamoylindoline]	4.76	0.1	46.4		1	3
Clc1ccc2nsnc2c1NC1=NCCN1 [Tizanidine, tizanidine hydrochloride, reference compound]					1	1
CN1CCC(=C2c3ccccc3C=Cc3ccccc32)CC1 [Cyproheptadine, cyproheptadine hydrochloride, reference compound]					3	
O/N=C/c1ccc(CCN2CCC(N3CCc4ccccc43)CC2)cc1 [Example 34, 1-[1-(4-hydroxyiminomethylphenethyl)piperidin-4-yl]indoline]	9.1	1.9			≤ 10	30
COc1cccc(C(O)c2ccc3c(c2)N(C2CCN(CCc4ccc(F)cc4)CC2)CC3)n1 (stereo not drawn) [Example 186, 1-[1-(4-fluorophenethyl)piperidin-4-yl]-6-[1-hydroxy-1-(2-methoxypyridin-6-yl)methyl]indoline]	3.32	14.6				10
CN(C)CCC=C1c2ccccc2C=Cc2ccccc21 [Cyclobenzaprine, cyclobenzaprine hydrochloride, reference compound]					10	
O=C(Cc1ccc2ccn(C3CCN(CCc4ccc(F)cc4)CC3)c2c1)NC(CO)CO.O=C(O)C(=O)O [Example 304, 1-[1-(4-fluorophenethyl)piperidin-4-yl]-6-(1,3-dihydroxypropan-2-yl)carbamoylmethylindole Oxalate]	6.26	8.37	141	213.1 to 214.5 °C (dec.)		
COc1ncc(CCN2CCC(N3CCc4ccccc43)CC2)s1 [Example 65, 1-[1-(2-methoxy-5-thiazolyl)ethylpiperidin-4-yl]indoline]	4.8	8.8				30
O=C(Cc1ccc2ccn(C3CCN(CCc4ccc(F)cc4)CC3)c2c1)NC1CC1 [Example 295, 1-[1-(4-fluorophenethyl)piperidin-4-yl]-6-[N-(cyclopropylcarbamoyl)methyl]indole]	3.64	0.85	195	156.4 to 156.8 °C		
O=C(CF)NCc1ccc2ccn(C3CCN(CCc4ccc(F)cc4)CC3)c2c1 [Example 366, 1-[1-(4-fluorophenethyl)piperidin-4-yl]-6-fluoroacetamidomethylindole]	2.05	0.48	74.6	106 to 108 °C		
O=C(Cc1ccc2ccn(C3CCN(CCc4ccc(F)cc4)CC3)c2c1)NCCO [Example 300, 1-[1-(4-fluorophenethyl)piperidin-4-yl]-6-(2-hydroxyethyl)carbamoylmethylindole]	3.55	1.73	225	140 to 141.2 °C		
OCc1ccc2ccn(C3CCN(CCc4ccccc4F)CC3)c2c1 [Example 391, 1-[1-(2-fluorophenethyl)piperidin-4-yl]-6-hydroxymethylindole]	6.83	1.72	116	116.8 to 117.5 °C		
O=C(CCCl)NCc1ccc2ccn(C3CCN(CCc4ccc(F)cc4)CC3)c2c1 [Example 367, 1-[1-(4-fluorophenethyl)piperidin-4-yl]-6-(3-chloropropionylamino)methylindole]	1.76	1.63	45.8	121 to 122 °C		
CNC(=O)Cc1ccc2ccn(C3CCN(CCc4ccc(F)cc4)CC3)c2c1 [Example 316, 1-[1-(4-fluorophenethyl)piperidin-4-yl]-6-methylcarbamoylmethylindole]	1.26	1.82	63.7	149.4 to 150.5 °C		
CC(C)CNC(=O)Cc1ccc2ccn(C3CCN(CCc4ccc(F)cc4)CC3)c2c1 [Example 296, 1-[1-(4-fluorophenethyl)piperidin 4-yl]-6-[N-(isobutylcarbamoyl)methyl]indole]	2.73	0.32	238	131.8 to 132.2 °C		
O=C(NCc1ccc2ccn(C3CCN(CCc4ccc(F)cc4)CC3)c2c1)C1CC1 [Example 363, 1-[1-(4-fluorophenethyl)piperidin-4-yl]-6-cyclopropanecarboxamidomethylindole]	3.39	1.5	106	116 to 117 °C		
CC(=O)NCc1ccc2c(Cl)cn(C3CCN(CCc4ccc(F)cc4)CC3)c2c1 [Example 328, 3-chloro-1-[1-(4-fluorophenethyl)piperidin-4-yl]-6-acetamidomethylindole]	> 20	2.06	140	101 to 102 °C		
NCC(CC(=O)O)c1ccc(Cl)cc1 (stereo not drawn) [Baclofen, baclofen, reference compound]					3	10
O=C1NCCN1Cc1ccc2c(c1)N(C1CCN(CCc3ccc(F)cc3)CC1)CC2 [Example 206, 1-[1-(4-fluorophenethyl)piperidin-4-yl]-6-(2-imidazolidonyl)methylindoline]	2.17	1.49				10
CCNC(=O)Cc1ccc2ccn(C3CCN(CCc4ccccc4F)CC3)c2c1 [Example 344, 1-[1-(2-fluorophenethyl)piperidin-4-yl]-6-ethylcarbamoylmethylindole]	1.64	1.78	74.9	147 to 148.6 °C		

More lines, main results first:

Ki (serotonin 2 receptor) [nM]	Ki (serotonin 1A receptor) [nM]	Ki (α1 adrenalin receptor) [nM]	melting point	SMILES	minimal effective dose [1, 2] [mg/kg]	minimal effective dose [1, 3] [mg/kg]
4.49	1.06	183		O=C1CCC(=O)N1Cc1ccc2c(c1)N(C1CCN(CCc3ccc(F)cc3)CC1)CC2 [Example 204, 1-[1-(4-fluorophenethyl)piperidin-4-yl]-6-(succinimido-1-yl)methylindoline]	3	3
1.27	10.4	68.6		OC(c1ccc2c(c1)N(C1CCN(CCc3ccc(F)cc3)CC1)CC2)c1ncccn1 (stereo not drawn) [Example 197, 1-[1-(4-fluorophenethyl)piperidin-4-yl]-6-[1-hydroxy-1-(pyrimidin-2-yl)methyl]indoline]		10
4.23	1.73	289	76 to 78 °C	O=C(CO)NCc1ccc2ccn(C3CCN(CCc4ccc(F)cc4)CC3)c2c1 [Example 364, 1-[1-(4-fluorophenethyl)piperidin-4-yl]-6-hydroxyacetamidomethylindole]		
0.83	7.02	51.5	111.8 to 112.9 °C	CN(C)CCNC(=O)Cc1ccc2ccn(C3CCN(CCc4ccc(F)cc4)CC3)c2c1 [Example 307, 1-[1-(4-fluorophenethyl)piperidin-4-yl]-6-(2-dimethylaminoethyl)carbamoylmethylindole]		
> 20	0.27	175	101 to 102 °C	COc1ccc(CCN2CCC(n3ccc4ccc(CNC(C)=O)cc43)CC2)cc1 [Example 351, 1-[1-(4-methoxyphenethyl)piperidin-4-yl]-6-acetamidomethylindole]		
3.31	7.59	163	58 to 59 °C	O=C(CCO)NCc1ccc2ccn(C3CCN(CCc4ccccc4F)CC3)c2c1 [Example 382, 1-[1-(2-fluorophenethyl)piperidin-4-yl]-6-(3-hydroxypropionylamino)methylindole]		
> 20	0.14	86.9	90 to 92 °C	CC(C)S(=O)(=O)NCc1ccc2ccn(C3CCN(CCc4ccc(F)cc4)CC3)c2c1 [Example 323, 1-[1-(4-fluorophenethyl)piperidin-4-yl]-6-isopropylsulfonamidomethylindole]		
> 20	0.04	212	152 to 154 °C	Fc1ccc(CCN2CCC(n3ccc4cc5scnc5cc43)CC2)cc1 [Example 334, 1-[1-(4-fluorophenethyl)piperidin-4-yl]thiazolo[5.4-f]indole]		
2.27	1.28	27.1	192 °C (dec.)	CNC(=O)NCc1ccc2ccn(C3CCN(CCc4ccc(F)cc4)CC3)c2c1 [Example 397, 1-[1-(4-fluorophenethyl)piperidin-4-yl]-6-(3-methylureido)methylindole]		
